Drawing on PMC6934184, “Selective DNA-PKcs inhibition extends the therapeutic index of localized radiotherapy and chemotherapy” (The Journal of Clinical Investigation, 2019), this text covers inhibition for one compound.

This experiment concerns the target T1, CDK5/p35 (Homo sapiens, UniProt Q00535).
T1 construct: purchased Thermo Fisher Scientific (Life Technologies) SelectScreen
Put plainly: SelectScreen Z'LYTE. Format: biochemical. The essentials: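 NU5455 was profiled across the SelectScreen Broad panel of kinase activity and binding assays. Z'LYTE reactions such as CSF1R ran at apparent Km ATP, while the Adapta CAMK1 assay used ATP listed as 10. Values are given as percent.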

The inhibition is the change of the read-out against control, counted positive when it falls.

T1 sequence (Q00535 whole entry): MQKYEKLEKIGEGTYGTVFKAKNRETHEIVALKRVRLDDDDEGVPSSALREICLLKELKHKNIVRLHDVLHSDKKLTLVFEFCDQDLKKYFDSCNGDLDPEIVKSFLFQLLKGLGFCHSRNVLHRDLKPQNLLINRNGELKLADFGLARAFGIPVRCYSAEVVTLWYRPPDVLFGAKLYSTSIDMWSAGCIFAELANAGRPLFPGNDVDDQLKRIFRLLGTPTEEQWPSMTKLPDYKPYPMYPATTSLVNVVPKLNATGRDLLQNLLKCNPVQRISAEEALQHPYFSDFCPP
T1 sequence (Q15078 whole entry partner): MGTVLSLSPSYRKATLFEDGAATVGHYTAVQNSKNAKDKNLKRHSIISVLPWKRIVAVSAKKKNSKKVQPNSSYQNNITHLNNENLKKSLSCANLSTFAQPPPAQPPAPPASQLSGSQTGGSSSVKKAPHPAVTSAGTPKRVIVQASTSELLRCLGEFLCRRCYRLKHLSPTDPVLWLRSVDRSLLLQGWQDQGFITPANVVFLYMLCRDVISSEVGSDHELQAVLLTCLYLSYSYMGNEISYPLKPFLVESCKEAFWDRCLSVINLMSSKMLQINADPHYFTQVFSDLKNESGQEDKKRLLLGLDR

Consider `CN(C(=O)CN1CCOCC1)c1ccc2sc3c(-c4cccc5c(=O)cc(N6CC7CCC(C6)O7)oc45)cccc3c2c1` [NU5455], for which the inhibition at 1 µM is -8.6%.
